# Assay results as given in patent US20260138958A1, “SUBSTITUTED N-PHENYLURACILS AND SALTS THEREOF, AND USE THEREOF AS HERBICIDAL ACTIVE SUBSTANCES” (Bayer Aktiengesellschaft, priority 2022, published 2026).
# Legend:
# Format in all cases: in vivo
# [1] = system: Abutilon theophrasti (ABUTH); assay: Post-emergence herbicidal action, greenhouse pot test
# Experimental: (§1) Seeds of monocotyledonous and dicotyledonous weeds and crop plants were placed in sandy loam in plastic or wood-fibre pots, covered with soil and cultivated in a greenhouse under controlled growth conditions. 2 to 3 weeks after sowing, the test plants were treated at the one-leaf stage. The compounds of the invention, formulated in the form of wettable powders (WP) or as emulsion concentrates (EC), were then sprayed onto the green parts of the plants as aqueous suspension or emulsion with addition of 0.5% additive at a water application rate of 600 l/ha (converted). After the test plants had been kept in the greenhouse under optimum growth conditions for about 3 weeks, the activity of the preparations was rated visually in comparison to untreated controls. For example, 100% activity=the plants have died, 0% activity=like control plants.
# Viola tricolor (VIOTR) = assay: as above
# Experimental: as §1
# [2] = system: Pharbitis purpurea (PHBPU); assay: as above
# Experimental: as §1
# [3] = system: Polygonum convolvulus (POLCO); assay: as above
# Experimental: as §1
# [4] = system: Echinochloa crus-galli (ECHCG); assay: as above
# Experimental: as §1
# [5] = system: Tripleurospermum inodorum (MATIN); assay: as above
# Experimental: as §1
# [6] = system: Amaranthus retroflexus (AMARE); assay: as above
# Experimental: as §1
# Veronica persica (VERPE) = assay: as above
# Experimental: as §1
# Lolium rigidum (LOLRI) = assay: as above
# Experimental: as §1
# [7] = system: Digitaria sanguinalis (DIGSA); assay: as above
# Experimental: as §1
# Bassia scoparia (KCHSC) = assay: as above
# Experimental: as §1
# Setaria viridis (SETVI) = assay: as above
# Experimental: as §1
# [8] = system: Alopecurus myosuroides (ALOMY); assay: as above
# Experimental: as §1
# [9] = system: Triticum aestivum (TRZAS); assay: Post-emergence crop plant compatibility, greenhouse pot test
# Experimental: as §1
# (§2) The observed effects on selected crop plants are reported here in comparison to the untreated controls (values in %).
# Oryza sativa (ORYSA) = assay: as above; details: Oryza sativa, in vivo
# Experimental: as §1, §2
# Zea mays (ZEAMX) = assay: as above; details: Zea mays, in vivo
# Experimental: as §1, §2
structure (smiles),measurement,setting,value
Cn1c(C(F)(F)F)cc(=O)n(-c2cc(Oc3ccccc3OCC(=O)OCC3CC34CCC4)c(Cl)cc2F)c1=O (stereo not drawn) [I.7-19],Post-emergence effect at 1.25 g/ha against ABUTH in %,[1],100%
same,Post-emergence effect at 5 g/ha against ABUTH in %,[1]; 5 g/ha,100%
same,Post-emergence effect at 20 g/ha against ABUTH in %,[1]; 20 g/ha,100%
same,Post-emergence effect at 1.25 g/ha against VIOTR in %,Viola tricolor (VIOTR),100%
same,Post-emergence effect at 5 g/ha against VIOTR in %,Viola tricolor (VIOTR),100%
same,Post-emergence effect at 20 g/ha against VIOTR in %,Viola tricolor (VIOTR); 20 g/ha,100%
same,Post-emergence effect at 1.25 g/ha against PHBPU in %,[2]; 1.25 g/ha,80%
same,Post-emergence effect at 5 g/ha against PHBPU in %,[2]; 5 g/ha,100%
same,Post-emergence effect at 20 g/ha against PHBPU in %,[2]; 20 g/ha,100%
same,Post-emergence effect at 5 g/ha against POLCO in %,[3]; 5 g/ha,100%
same,Post-emergence effect at 20 g/ha against POLCO in %,[3]; 20 g/ha,100%
same,Post-emergence effect at 5 g/ha against ECHCG in %,[4],100%
same,Post-emergence effect at 20 g/ha against ECHCG in %,[4]; 20 g/ha,100%
same,Post-emergence effect at 20 g/ha against MATIN in %,[5]; 20 g/ha,100%
same,Post-emergence effect at 1.25 g/ha against AMARE in %,[6]; 1.25 g/ha,100%
same,Post-emergence effect at 5 g/ha against AMARE in %,[6]; 5 g/ha,100%
same,Post-emergence effect at 20 g/ha against AMARE in %,[6]; 20 g/ha,100%
same,Post-emergence effect at 1.25 g/ha against VERPE in %,Veronica persica (VERPE); 1.25 g/ha,90%
same,Post-emergence effect at 5 g/ha against VERPE in %,Veronica persica (VERPE); 5 g/ha,100%
same,Post-emergence effect at 20 g/ha against VERPE in %,Veronica persica (VERPE); 20 g/ha,100%
same,Post-emergence effect at 20 g/ha against LOLRI in %,Lolium rigidum (LOLRI),80%
same,Post-emergence effect at 5 g/ha against DIGSA in %,[7]; 5 g/ha,100%
same,Post-emergence effect at 20 g/ha against DIGSA in %,[7]; 20 g/ha,100%
same,Post-emergence effect at 1.25 g/ha against KCHSC in %,Bassia scoparia (KCHSC); 1.25 g/ha,80%
same,Post-emergence effect at 5 g/ha against KCHSC in %,Bassia scoparia (KCHSC); 5 g/ha,80%
same,Post-emergence effect at 20 g/ha against KCHSC in %,Bassia scoparia (KCHSC); 20 g/ha,100%
same,Post-emergence effect at 1.25 g/ha against SETVI in %,Setaria viridis (SETVI),100%
same,Post-emergence effect at 5 g/ha against SETVI in %,Setaria viridis (SETVI); 5 g/ha,100%
same,Post-emergence effect at 20 g/ha against SETVI in %,Setaria viridis (SETVI); 20 g/ha,100%
same,Post-emergence effect at 20 g/ha against ALOMY in %,[8]; 20 g/ha,100%
same,Post-emergence effect at 1.25 g/ha against TRZAS in %,"[9]; crop plant, post-emergence, 1.25 g/ha",10%
"Cn1c(C(F)(F)F)cc(=O)n(-c2cc(Oc3ccccc3OCC(=O)OCC3CC3)c(C#N)cc2F)c1=O [I.9-1, Cyclopropylmethyl (2-{2-cyano-4-fluoro-5-[3-methyl-2,6-dioxo-4-(trifluoromethyl)-3,6-dihydropyrimidin-1(2H)-yl]phenoxy}phenoxy)acetate]",Post-emergence effect at 1.25 g/ha against ABUTH in %,[1],100%
same,pest or weed control at 5 g/ha,"[1]; Abutilon theophrasti, 504 h, 5 g/ha, read-out: Post-emergence effect at 5 g/ha against ABUTH in %",100%
same,pest or weed control at 20 g/ha,"[1]; Abutilon theophrasti, 504 h, 20 g/ha, read-out: Post-emergence effect at 20 g/ha against ABUTH in %",100%
same,Post-emergence effect at 1.25 g/ha against VIOTR in %,Viola tricolor (VIOTR),100%
same,Post-emergence effect at 5 g/ha against VIOTR in %,Viola tricolor (VIOTR),100%
same,pest or weed control at 20 g/ha,"Viola tricolor (VIOTR); Viola tricolor, 504 h, 20 g/ha, read-out: Post-emergence effect at 20 g/ha against VIOTR in %",100%
same,pest or weed control at 5 g/ha,"[2]; Ipomoea purpurea, 504 h, 5 g/ha, read-out: Post-emergence effect at 5 g/ha against PHBPU in %",100%
same,pest or weed control at 20 g/ha,"[2]; Ipomoea purpurea, 504 h, 20 g/ha, read-out: Post-emergence effect at 20 g/ha against PHBPU in %",100%
same,pest or weed control at 5 g/ha,"[3]; Fallopia convolvulus, 504 h, 5 g/ha, read-out: Post-emergence effect at 5 g/ha against POLCO in %",80%
same,pest or weed control at 20 g/ha,"[3]; Fallopia convolvulus, 504 h, 20 g/ha, read-out: Post-emergence effect at 20 g/ha against POLCO in %",100%
same,Post-emergence effect at 1.25 g/ha against ECHCG in %,[4]; 1.25 g/ha,80%
same,Post-emergence effect at 5 g/ha against ECHCG in %,[4],100%
same,pest or weed control at 20 g/ha,"[4]; Echinochloa crus-galli, 504 h, 20 g/ha, read-out: Post-emergence effect at 20 g/ha against ECHCG in %",100%
same,Post-emergence effect at 5 g/ha against MATIN in %,[5]; 5 g/ha,80%
same,pest or weed control at 20 g/ha,"[5]; Tripleurospermum inodorum, 504 h, 20 g/ha, read-out: Post-emergence effect at 20 g/ha against MATIN in %",80%
same,pest or weed control at 1.25 g/ha,"[6]; Amaranthus retroflexus, 504 h, 1.25 g/ha, read-out: Post-emergence effect at 1.25 g/ha against AMARE in %",100%
same,pest or weed control at 5 g/ha,"[6]; Amaranthus retroflexus, 504 h, 5 g/ha, read-out: Post-emergence effect at 5 g/ha against AMARE in %",100%
same,pest or weed control at 20 g/ha,"[6]; Amaranthus retroflexus, 504 h, 20 g/ha, read-out: Post-emergence effect at 20 g/ha against AMARE in %",100%
same,pest or weed control at 5 g/ha,"Veronica persica (VERPE); Veronica persica, 504 h, 5 g/ha, read-out: Post-emergence effect at 5 g/ha against VERPE in %",100%
same,pest or weed control at 20 g/ha,"Veronica persica (VERPE); Veronica persica, 504 h, 20 g/ha, read-out: Post-emergence effect at 20 g/ha against VERPE in %",100%
same,Post-emergence effect at 1.25 g/ha against SETVI in %,Setaria viridis (SETVI),80%
same,pest or weed control at 5 g/ha,"Setaria viridis (SETVI); Setaria viridis, 504 h, 5 g/ha, read-out: Post-emergence effect at 5 g/ha against SETVI in %",100%
same,pest or weed control at 20 g/ha,"Setaria viridis (SETVI); Setaria viridis, 504 h, 20 g/ha, read-out: Post-emergence effect at 20 g/ha against SETVI in %",100%
same,Post-emergence effect at 5 g/ha against ALOMY in %,[8]; 5 g/ha,100%
same,pest or weed control at 20 g/ha,"[8]; Alopecurus myosuroides, 504 h, 20 g/ha, read-out: Post-emergence effect at 20 g/ha against ALOMY in %",100%
same,Post-emergence effect at 1.25 g/ha against TRZAS in %,"[9]; Triticum aestivum, in vivo",0%
same,Post-emergence effect at 20 g/ha against TRZAS in %,"[9]; Triticum aestivum, in vivo",20%
same,Post-emergence effect at 1.25 g/ha against ORYSA in %,Oryza sativa (ORYSA),0%
same,Post-emergence effect at 5 g/ha against ORYSA in %,Oryza sativa (ORYSA),0%
same,Post-emergence effect at 20 g/ha against ORYSA in %,Oryza sativa (ORYSA),0%
same,Post-emergence effect at 1.25 g/ha against ZEAMX in %,Zea mays (ZEAMX),10%
same,Post-emergence effect at 5 g/ha against ZEAMX in %,Zea mays (ZEAMX),20%
